Results from ChEMBL document CHEMBL3616371, “Synthesis of BF₃ catalyzed Mannich derivatives with excellent ee from phenylpropanolamine, study of their antimicrobial activity and molecular docking” (2015).
≈ marks a conversion by molar mass, not a printed value.

Key:
Staphylococcus aureus [1] = assay: Antibacterial activity against Staphylococcus aureus assessed as growth inhibition at 1 mg/well after 24 hrs by Well method; format: functional
[2] = test system: Staphylococcus epidermidis; assay: Antibacterial activity against Staphylococcus epidermidis assessed as growth inhibition at 1 mg/well after 24 hrs by Well method; format: functional
Staphylococcus aureus [3] = assay: Antibacterial activity against methicillin-resistant Staphylococcus aureus assessed as growth inhibition at 1 mg/well after 24 hrs by Well method; format: functional
[4] = test system: Salmonella enterica subsp. enterica serovar Paratyphi B; assay: Antibacterial activity against Salmonella paratyphi B assessed as growth inhibition at 1 mg/well after 24 hrs by Well method; format: functional
Salmonella typhimurium [5] = assay: Antibacterial activity against Salmonella typhimurium assessed as growth inhibition at 1 mg/well after 24 hrs by Well method; format: functional, Salmonella enterica subsp. enterica serovar Typhimurium
Proteus vulgaris [6] = assay: Antibacterial activity against Proteus vulgaris assessed as growth inhibition at 1 mg/well after 24 hrs by Well method; format: functional
Micrococcus luteus [7] = assay: Antibacterial activity against Micrococcus luteus assessed as growth inhibition at 1 mg/well after 24 hrs by Well method; format: functional
Shigella flexneri [8] = assay: Antibacterial activity against Shigella flexneri assessed as growth inhibition at 1 mg/well after 24 hrs by Well method; format: functional
Bacillus subtilis [9] = assay: Antibacterial activity against Bacillus subtilis assessed as growth inhibition at 1 mg/well after 24 hrs by Well method; format: functional
Pseudomonas aeruginosa [10] = assay: Antibacterial activity against Pseudomonas aeruginosa assessed as growth inhibition at 1 mg/well after 24 hrs by Well method; format: functional
Staphylococcus aureus [11] = assay: Antibacterial activity against Staphylococcus aureus after 24 hrs by two fold serial dilution method; format: functional
[12] = test system: Staphylococcus epidermidis; assay: Antibacterial activity against Staphylococcus epidermidis after 24 hrs by two fold serial dilution method; format: functional
Staphylococcus aureus [13] = assay: Antibacterial activity against methicillin-resistant Staphylococcus aureus after 24 hrs by two fold serial dilution method; format: functional
[14] = test system: Salmonella enterica subsp. enterica serovar Paratyphi B; assay: Antibacterial activity against Salmonella paratyphi B after 24 hrs by two fold serial dilution method; format: functional
Salmonella typhimurium [15] = assay: Antibacterial activity against Salmonella typhimurium after 24 hrs by two fold serial dilution method; format: functional, Salmonella enterica subsp. enterica serovar Typhimurium; conditions: Salmonella enterica
Proteus vulgaris [16] = assay: Antibacterial activity against Proteus vulgaris after 24 hrs by two fold serial dilution method; format: functional
Micrococcus luteus [17] = assay: Antibacterial activity against Micrococcus luteus after 24 hrs by two fold serial dilution method; format: functional
Shigella flexneri [18] = assay: Antibacterial activity against Shigella flexneri after 24 hrs by two fold serial dilution method; format: functional
Bacillus subtilis [19] = assay: Antibacterial activity against Bacillus subtilis after 24 hrs by two fold serial dilution method; format: functional
Pseudomonas aeruginosa [20] = assay: Antibacterial activity against Pseudomonas aeruginosa after 24 hrs by two fold serial dilution method; format: functional
Klebsiella aerogenes [21] = assay: Antibacterial activity against Enterobacter aerogenes assessed as growth inhibition at 1 mg/well after 24 hrs by Well method; format: functional
Klebsiella aerogenes [22] = assay: Antibacterial activity against Enterobacter aerogenes after 24 hrs by two fold serial dilution method; format: functional
Candida albicans [23] = assay: Antifungal activity against Candida albicans assessed as growth inhibition at 1 mg/well after 48 hrs by Well method; format: functional
Malassezia pachydermatis [24] = assay: Antifungal activity against Malassezia pachydermatis assessed as growth inhibition at 1 mg/well after 48 hrs by Well method; format: functional
Candida albicans [25] = assay: Antifungal activity against Candida albicans after 48 to 72 hrs by two fold serial dilution method; format: functional
Malassezia pachydermatis [26] = assay: Antifungal activity against Malassezia pachydermatis after 48 to 72 hrs by two fold serial dilution method; format: functional
Klebsiella pneumoniae [27] = assay: Antibacterial activity against Klebsiella pneumoniae assessed as growth inhibition at 1 mg/well after 24 hrs by Well method; format: functional
Aspergillus flavus [28] = assay: Antifungal activity against Aspergillus flavus assessed as growth inhibition at 1 mg/well after 48 hrs by Well method; format: functional
Klebsiella pneumoniae [29] = assay: Antibacterial activity against Klebsiella pneumoniae after 24 hrs by two fold serial dilution method; format: functional
Aspergillus flavus [30] = assay: Antifungal activity against Aspergillus flavus after 48 to 72 hrs by two fold serial dilution method; format: functional

SMILES	inhibition zone (IZ) (Staphylococcus aureus [1]) [mm]	inhibition zone (IZ) [2] [mm]	inhibition zone (IZ) (Staphylococcus aureus [3]) [mm]	inhibition zone (IZ) (Salmonella typhimurium [5]) [mm]	inhibition zone (IZ) (Proteus vulgaris [6]) [mm]	inhibition zone (IZ) (Micrococcus luteus [7]) [mm]	inhibition zone (IZ) (Shigella flexneri [8]) [mm]	inhibition zone (IZ) (Bacillus subtilis [9]) [mm]	inhibition zone (IZ) (Pseudomonas aeruginosa [10]) [mm]	MIC (Staphylococcus aureus [11]) [µg/mL]	MIC (Staphylococcus aureus [13]) [µg/mL]	MIC [14] [µg/mL]	MIC (Salmonella typhimurium [15]) [µg/mL]	MIC (Proteus vulgaris [16]) [µg/mL]	MIC (Micrococcus luteus [17]) [µg/mL]	MIC (Shigella flexneri [18]) [µg/mL]	MIC (Bacillus subtilis [19]) [µg/mL]	MIC (Pseudomonas aeruginosa [20]) [µg/mL]	inhibition zone (IZ) (Klebsiella aerogenes [21]) [mm]	MIC (Klebsiella aerogenes [22]) [µg/mL]	also measured
C[C@@H](NCCC(=O)c1ccc(Cl)cc1Cl)[C@@H](O)c1ccccc1.Cl	37	34	34	34	33	28	32	26	24	3.13	3.13	50	3.13	3.13	6.25	3.13	6.25	6.25	35	3.13	inhibition zone (IZ) [4]: 16 mm; MIC [12]: 3.13 µg/mL
C[C@H](NCCC(=O)c1cccc([N+](=O)[O-])c1)[C@H](O)c1ccccc1.Cl	15	19	15	17	18	19	16	15	16	50	50	> 50	50	50	50	50	50	50	16	50	inhibition zone (IZ) [4]: 12 mm; inhibition zone (IZ) (Candida albicans [23]): 12 mm; inhibition zone (IZ) (Malassezia pachydermatis [24]): 13 mm; MIC [12]: 50 µg/mL; MIC (Candida albicans [25]): > 50 µg/mL; MIC (Malassezia pachydermatis [26]): > 50 µg/mL
COc1ccc(C(=O)CCN[C@@H](C)[C@H](O)c2ccccc2)cc1.Cl	18	22	20	17	21	23	21	19	20	50	50	50	50	50	25	50	25	25	20	50	inhibition zone (IZ) [4]: 20 mm; inhibition zone (IZ) (Klebsiella pneumoniae [27]): 12 mm; inhibition zone (IZ) (Aspergillus flavus [28]): 10 mm; MIC [12]: 25 µg/mL; MIC (Klebsiella pneumoniae [29]): > 50 µg/mL; MIC (Aspergillus flavus [30]): > 50 µg/mL
CN[C@@H]1[C@H](O[C@H]2[C@H](O[C@H]3[C@H](O)[C@@H](O)[C@H](N=C(N)N)[C@@H](O)[C@@H]3N=C(N)N)O[C@@H](C)[C@]2(O)C=O)O[C@@H](CO)[C@H](O)[C@H]1O [STREPTOMYCIN]	14	–	30	24	30	26	30	22	30	6.25 (≈ 10.7 µM)	6.25 (≈ 10.7 µM)	30 (≈ 51.6 µM)	6.25 (≈ 10.7 µM)	6.25 (≈ 10.7 µM)	6.25 (≈ 10.7 µM)	6.25 (≈ 10.7 µM)	25 (≈ 43 µM)	25 (≈ 43 µM)	22	25 (≈ 43 µM)	inhibition zone (IZ) [4]: 18 mm; inhibition zone (IZ) (Klebsiella pneumoniae [27]): 20 mm; MIC (Klebsiella pneumoniae [29]): 25 µg/mL (≈ 43 µM)
C[C@H](NCCC(=O)c1ccc(Cl)cc1)[C@H](O)c1ccccc1.Cl	26	28	29	24	25	28	22	19	20	50	25	> 50	50	25	50	25	25	25	25	50	inhibition zone (IZ) (Klebsiella pneumoniae [27]): 11 mm; inhibition zone (IZ) (Malassezia pachydermatis [24]): 12 mm; inhibition zone (IZ) (Aspergillus flavus [28]): 15 mm; MIC [12]: 25 µg/mL; MIC (Klebsiella pneumoniae [29]): 50 µg/mL; MIC (Aspergillus flavus [30]): 50 µg/mL
